According to patent publication US20260007601A1, “IONIZABLE CATIONIC LIPID COMPOUND AND COMPOSITION FOR DELIVERING NUCLEIC ACID AND USE THEREOF” (BEIJING YOUCAREKECHUANG PHARMACEUTICAL TECHNOLOGY CO., LTD., priority 2023, published 2026):
Several values for one entry are separate records, joined by “and”; a condition that tells them apart may be missing. Identical values can stand only once.

Columns and labels:
female BALB/C mice = experiment: Mouse in vivo imaging of Fluc-mRNA LNP formulations; set-up: average radiation intensity (mRNA expression): unit not given here; details: for average radiation intensity (mRNA expression): 10 μg Fluc-mRNA LNP intramuscularly
Procedure, shortened: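 Female BALB/C mice (4–6 weeks, 17–19 g) received LNP carrying 10 μg Fluc-mRNA intramuscularly. Imaging substrate given intraperitoneally at 6 h, 24 h, 48 h and 7 d; after 5 min free movement, average radiance read by IVIS Spectrum imaging.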

[1] = Encapsulation rate, drug loading concentration and total RNA concentration detection (RiboGreen); format: physicochemical
[2] = Particle size and polydispersity index (PDI) of nanolipid particles, dynamic light scattering; format: physicochemical; details: LNP formulation prepared from the named cationic lipid, 25° C
Experimental: The particle size and polydispersity index (PDI) were determined by dynamic light scattering method using a Malvern laser particle size analyzer. 10 μL of liposome solution was diluted to 1 mL with RNase-free deionized water and added to a sample pool. Each sample was measured three times. The measurement conditions were: 90° scattering angle, 25° C.

293T cells = experiment: Cell survival rate assay (CCK-8); format: cell-based
Procedure, shortened: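 293T cells seeded at 10,000 per well and grown overnight, then exposed for 24 h to LNPs (cationic/neutral/structured/PEG lipids 49:10:39.5:1.5) carrying 1.5 μg Fluc-mRNA, or Lipofectamine 3000. Viability read by CCK-8, 1 h incubation, absorbance at 450 nm.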

[3] = LNP formulation of the named lipid

CCCCCCCCC(CCCCCCCC)COC(=O)CCCCCN(CCCCCC(=O)OCC(CCCCCCCC)CCCCCCCC)CCN(C)CCO [YK-209, bis(2-octyldecyl)-6,6′-((2-(2-hydroxyethyl(methyl)amino)ethyl)azadialkyl)dihexanoate]
average radiation intensity, times that of ALC-0315 (female BALB/C mice; 6 h): 3.00 times | average radiation intensity, times that of HHMA (female BALB/C mice; 6 h): 3.95 times | average radiation intensity, times that of SM-102 (female BALB/C mice; 6 h): 3.72 times | average radiation intensity, times that of compound 21 (female BALB/C mice; 6 h): 4.20 times | average radiation intensity, times that of compound 23 (female BALB/C mice; 6 h): 4.25 times | mRNA expression level, times that of YK-204 (female BALB/C mice; 6 h): 71.62 times | mRNA expression level, times that of YK-223 (female BALB/C mice; 6 h): 243.77 times | average radiation intensity (mRNA expression) (female BALB/C mice; 6 h): 2524250 | expression level, times that of YK-215 (female BALB/C mice; 6 hours): 49.92 times | expression level, times that of YK-217 (female BALB/C mice; 6 hours): 102.67 times | average radiation intensity, times that of ALC-0315 (female BALB/C mice; 24 h): 10.25 times | average radiation intensity, times that of HHMA (female BALB/C mice; 24 h): 17.05 times | average radiation intensity, times that of SM-102 (female BALB/C mice; 24 h): 16.14 times | average radiation intensity, times that of compound 21 (female BALB/C mice; 24 h): 17.31 times | average radiation intensity, times that of compound 23 (female BALB/C mice; 24 h): 16.86 times | mRNA expression level, times that of YK-204 (female BALB/C mice; 24 h): 357.40 times | mRNA expression level, times that of YK-223 (female BALB/C mice; 24 h): 1046.60 times | average radiation intensity (mRNA expression) (female BALB/C mice; 24 h): 1869220 | expression level, times that of YK-215 (female BALB/C mice; 24 hours): 274.28 times | expression level, times that of YK-217 (female BALB/C mice; 24 hours): 705.37 times | average radiation intensity, times that of ALC-0315 (female BALB/C mice; 48 h): 16.50 times | average radiation intensity, times that of HHMA (female BALB/C mice; 48 h): 21.36 times | average radiation intensity, times that of SM-102 (female BALB/C mice; 48 h): 20.59 times | average radiation intensity, times that of compound 21 (female BALB/C mice; 48 h): 20.95 times | average radiation intensity, times that of compound 23 (female BALB/C mice; 48 h): 19.61 times | mRNA expression level, times that of YK-204 (female BALB/C mice; 48 h): 257.82 times | mRNA expression level, times that of YK-223 (female BALB/C mice; 48 h): 927.85 times | average radiation intensity (mRNA expression) (female BALB/C mice; 48 h): 629080 | expression level, times that of YK-215 (female BALB/C mice; 48 hours): 172.82 times | expression level, times that of YK-217 (female BALB/C mice; 48 hours): 614.34 times | average radiation intensity, times that of ALC-0315 (female BALB/C mice; 7 d): 4.00 times | average radiation intensity, times that of HHMA (female BALB/C mice; 7 d): 4.96 times | average radiation intensity, times that of SM-102 (female BALB/C mice; 7 d): 4.47 times | average radiation intensity, times that of compound 21 (female BALB/C mice; 7 d): 4.32 times | average radiation intensity, times that of compound 23 (female BALB/C mice; 7 d): 4.52 times | expression level, times that of YK-215 (female BALB/C mice; 7 d): 25.84 times | expression level, times that of YK-217 (female BALB/C mice; 7 d): 50.40 times | mRNA expression level, times that of YK-204 (female BALB/C mice; 7 d): 34.96 times | mRNA expression level, times that of YK-223 (female BALB/C mice; 7 d): 59.91 times | average radiation intensity (mRNA expression) (female BALB/C mice; 7 d): 26361 | drug loading concentration, times that of ALC-0315 [1]: 1.60 times | drug loading concentration, times that of HHMA [1]: 1.36 times | drug loading concentration, times that of SM-102 [1]: 1.64 times | drug loading concentration, times that of YK-009 [1]: 1.55 times | drug loading concentration, times that of compound 21 [1]: 1.85 times | drug loading concentration, times that of compound 23 [1]: 2.02 times and 2 times | total RNA concentration, times that of ALC-0315 [1]: 1.17 times | total RNA concentration, times that of HHMA [1]: 1.15 times | total RNA concentration, times that of SM-102 [1]: 1.23 times | total RNA concentration, times that of YK-009 [1]: 1.12 times | total RNA concentration, times that of compound 21 [1]: 1.41 times | total RNA concentration, times that of compound 23 [1]: 1.34 times | Drug loading concentration [1, 3]: 41.76 µg/mL | Encapsulation rate [1, 3]: 96.2% | Total RNA concentration [1, 3]: 43.42 µg/mL | encapsulation rate higher than that of ALC-0315 ([1]; difference of rates): 33.40% | encapsulation rate higher than that of HHMA ([1]; difference of rates): 35.70% | encapsulation rate higher than that of SM-102 ([1]; difference of rates): 33.90% | encapsulation rate higher than that of YK-009 ([1]; difference of rates): 33.20% | encapsulation rate higher than that of compound 21 ([1]; difference of rates): 38.40% | encapsulation rate higher than that of compound 23 ([1]; difference of rates): 41% | PDI [2]: 26.6% | Particle size [2]: 226 nm | Cell survival rate (293T cells; LNP containing 1.5 μg Fluc-mRNA, 24 hours, CCK-8): 76.69% | cell survival rate higher (cytotoxicity reduced) compared with YK-221 (293T cells; difference of rates): 55% and 55.74% | cell survival rate higher (toxicity lower) than that of YK-204 (293T cells; difference of rates): 34.12% | cell survival rate higher (toxicity lower) than that of YK-225 (293T cells; difference of rates): 30% and 33.28% | cell survival rate higher than that of ALC-0315 (293T cells; difference of rates): 26.73% | cell survival rate higher than that of HHMA (293T cells; difference of rates): 11.13% | cell survival rate higher than that of Lipofectamine 3000 (293T cells; difference of rates): 53.64% | cell survival rate higher than that of SM-102 (293T cells; difference of rates): 8.14% | cell survival rate higher than that of YK-203 (293T cells; difference of rates): 41.13% | cell survival rate higher than that of YK-205 (293T cells; difference of rates): 17.77% | cell survival rate higher than that of YK-208 (293T cells; difference of rates): 30.01% | cell survival rate higher than that of YK-210 (293T cells; difference of rates): 38.31% | cell survival rate higher than that of YK-211 (293T cells; difference of rates): 24.39% | cell survival rate higher than that of YK-212 (293T cells; difference of rates): 41.43% | cell survival rate higher than that of YK-213 (293T cells; difference of rates): 35.25% | cell survival rate higher than that of YK-214 (293T cells; difference of rates): 51.11% and 50% | cell survival rate higher than that of YK-215 (293T cells; difference of rates): 32.10% | cell survival rate higher than that of YK-216 (293T cells; difference of rates): 30.89% | cell survival rate higher than that of YK-217 (293T cells; difference of rates): 34.42% | cell survival rate higher than that of YK-219 (293T cells; difference of rates): 18.08% | cell survival rate higher than that of YK-220 (293T cells; difference of rates): 17.70% | cell survival rate higher than that of YK-222 (293T cells; difference of rates): 42.94% | cell survival rate higher than that of YK-223 (293T cells; difference of rates): 40.05% | cell survival rate higher than that of YK-224 (293T cells; difference of rates): 53.22% | cell survival rate higher than that of YK-226 (293T cells; difference of rates): 48.79% | cell survival rate higher than that of compound 21 (293T cells; difference of rates): 7.67% | cell survival rate higher than that of compound 23 (293T cells; difference of rates): 6.59%
